# Reference: patent US20220009987A9, “HUMAN RESISTIN COMPOSITIONS AND METHODS OF TREATING TLR4-MEDIATED DISEASE AND INFECTION” (THE REGENTS OF THE UNIVERSITY OF CALIFORNIA, priority 2017, published 2022)
# Columns and labels:
# human PBMCs = assay: Human PBMC functional assay, LPS-induced cytokine secretion (ELISA); format: cell-based; settings: human PBMC, pre-treatment then LPS 100 ng/mL
# Procedure: (§1) Human PBMCs. Human buffy coat was purchased from Zen-bio. Buffy coat was overlaid on top of Histopaque-1077 and spun at 700g at 25° C. with no brake and PBMCs were recovered from the interphase. PBMCs were plated in 96-well plates and stimulated with mammalian-derived human resistin (1 μg/mL, LifeSpan Biosciences) or hRetn N-peptide (1 μg/mL). After 24 hours, ultrapure LPS (100 ng/mL, Invivogen) was added and supernatants recovered for ELISA at 24 hours. Where indicated, cells were incubated for 4 hours with STAT3 (5, 15-DPP, 50 μM) or TBK1 (BX-795, 1 μM) inhibitors prior to hRetn treatment. For the hRetn competitive binding assay, 1×10^6 cells were incubated with recombinant hRetn (0.5 μg), washed in PBS then incubated with 0.5 μg LPS-biotin (incubations were 30 minutes on ice). Cells were washed in FACS buffer, treated with Fc block, and stained with BV605-conjugated streptavidin and α-human primary antibodies: CD14 (clone M5E2), CD11 b (clone M1/70) and MD2/TLR4 (clone HTA125) purchased from Affymetrix.
# Cytokine Quantification. Sandwich ELISAs were performed using capture and biotinylated antibodies for human resistin (Peprotech), IL-10 and TNFα (BD Biosciences) according to manufacturer's instructions. Detection was performed with streptavidin-peroxidase (Jackson ImmunoResearch) and TMB peroxidase substrate (BD Biosciences), followed by addition of 2N H2SO4. Optical density (OD) was captured at 450 nm. Samples were compared to serial-fold dilution of recombinant protein. For Luminex, inflammatory cytokine kits (Affymetrix) were run according to manufacturer's instructions and quantified on Luminex MagPix (Luminex Corp.). For cytokine bead array, cytokine kits from BD Bioscience were run according to manufacturer's instructions on BD LSRII and analyzed using FCAP Array Software.
# CD14+CD11b+ monocytes = assay: Competitive resistin/LPS binding assay on human PBMCs (flow cytometry); format: cell-based; settings: for LPS binding to CD14+CD11b+ monocytes: pre-incubation before LPS-biotin, on ice
# Procedure: as §1
# human TLR4 = human TLR4 (Homo sapiens, UniProt O00206); assay: Pull-down assay with His-tagged human TLR4; format: binding; settings: pre-incubation of His-TLR4 with 500 ng/ml N-peptide, anti-Flag blot
# Chain of human TLR4 (O00206 24-839): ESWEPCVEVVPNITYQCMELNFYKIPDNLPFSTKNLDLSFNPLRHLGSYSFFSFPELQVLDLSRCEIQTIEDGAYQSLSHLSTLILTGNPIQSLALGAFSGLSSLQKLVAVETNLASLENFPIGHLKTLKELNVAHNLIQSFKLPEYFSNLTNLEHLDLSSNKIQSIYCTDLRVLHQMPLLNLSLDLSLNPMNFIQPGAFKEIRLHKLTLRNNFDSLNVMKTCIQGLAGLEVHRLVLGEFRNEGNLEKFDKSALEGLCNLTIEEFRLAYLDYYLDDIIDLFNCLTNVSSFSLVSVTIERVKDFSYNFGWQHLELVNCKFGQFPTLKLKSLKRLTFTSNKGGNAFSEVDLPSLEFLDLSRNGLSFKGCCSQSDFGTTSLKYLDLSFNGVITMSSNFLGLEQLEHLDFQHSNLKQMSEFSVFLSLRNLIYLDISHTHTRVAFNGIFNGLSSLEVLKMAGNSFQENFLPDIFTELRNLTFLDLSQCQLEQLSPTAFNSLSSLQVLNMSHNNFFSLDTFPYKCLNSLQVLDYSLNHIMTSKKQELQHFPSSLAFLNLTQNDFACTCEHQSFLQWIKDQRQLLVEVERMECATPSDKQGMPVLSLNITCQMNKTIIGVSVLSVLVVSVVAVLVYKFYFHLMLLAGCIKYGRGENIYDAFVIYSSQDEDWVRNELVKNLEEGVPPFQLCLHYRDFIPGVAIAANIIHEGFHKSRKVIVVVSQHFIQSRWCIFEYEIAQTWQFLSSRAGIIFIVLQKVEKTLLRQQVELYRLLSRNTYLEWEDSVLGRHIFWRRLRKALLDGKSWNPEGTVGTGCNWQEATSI
# Procedure: Pull-down Assay. 1 μg/ml protein His-tagged MBP, human TLR4 and human CAP1 were added to nickel-nitrilotriacetic acid-agarose beads (Invitrogen) in binding buffer (50 mM NaH2PO4, 500 mM NaCl, 10 mM Imidazole, pH 8.0) and mixed for 1 hour at 4° C., followed by washing and 1 h incubation at 4° C. with hRetn (E. coli-derived, Peprotech or 293T cell-derived, LifeSpan Biosciences) in binding buffer. Beads were washed in wash buffer (50 mM NaH2PO4, 500 mM NaCl, 20 mM Imidazole, pH 8.0), and complex protein eluted with elution buffer (50 mM NaH2PO4, 500 mM NaCl, 250 mM Imidazole, pH 6.0). His-MBP, His-TLR4 and His-CAP1 were detected by anti-His antibody (Abcam), and hRetn was detected by anti-hRetn antibody (donated by Mitchell Lazar) by Western Blot. For the N-peptide binding experiment, 1 μg/ml His-tagged human TLR4 with 500 ng/ml N-peptide or 10% TFE control was added to the beads in binding buffer and mixed for 30 min at 4° C., followed by co-immunoprecipitation using 1 μg/ml Flag-hRetn (LifeSpan Biosciences), anti-His or anti-Flag (Sigma).
Compound,IL-10 expression after LPS (human PBMCs),LPS-induced TNFα secretion (human PBMCs),"LPS-promoted surface MD2/TLR4 complex formation (CD14+CD11b+ monocytes; human PBMC, flow cytometry)",LPS binding to CD14+CD11b+ monocytes (CD14+CD11b+ monocytes),LPS binding to CD14+CD11b+ monocytes (CD14+CD11b+ monocytes; listed as N-pep),competitive inhibition of Flag-tagged full-length hRetn binding to hTLR4 (human TLR4)
"O=C(NCCCNc1nc(Nc2cccc(NC(=O)N3CCCC3)c2)ncc1I)c1cccs1 [TBK1 inhibitor, BX-795, reference compound]",increased IL-10 expression,significantly reduced LPS-induced TNFα,,,,
"hRetn N-peptide: synthesized hRetn N-terminal peptide (1-23 a.a.), SEQ ID NO: 2 (MEEAINERIQEVAGSLIFRAISS) (listed as Homo sapiens)",,significantly more efficient at suppressing LPS-induced TNFα than full-length hRetn,abrogated,inhibited LPS binding,abrogated the binding of LPS in human PMBCs similar to full-length hRetn,sufficient to abrogate binding of full-length hRetn
